Reference: US6921811B2, “Bioactive coating composition and methods” (BioSurface Engineering Technologies, Inc., priority 1998, dated 2005)
Marks after values point to notes of the source that are not given here.

How the values were obtained:
[1] = tested on: C3H10T1/2 cells; test: Attachment of C3H10T1/2 cells to silyl-heparin coated wells complexed with adhesive molecules, crystal violet; type: cell-based, murine; design: unit not given here; conditions: after two hours; hydrogel-polystyrene 96-well plates coated with silyl-heparin complexes and the listed adhesive molecule; proteins 100 μg/ml, serum undiluted
Protocol: Attachment of C3H10T1/2 cells after two hours to wells of 96-well, hydrogel-polystyrene plates coated with silyl-heparin complexes and the listed adhesive molecule was detected by staining with crystal violet. All proteins were used at a concentration of 100 μg/ml in buffered saline. Serum was used without dilution. Statistical significance was assessed relative to the values from buffered saline using Student's t-test, with * indicating p<0.05, ** indicating p<0.01 and *** indicating p<0.001.

[2] = tested on: Bovine aorta endothelial cells; test: Capillary tube formation on coated low attachment wells; type: cell-based; conditions: 5×10^3 cells per well; DMEM containing 10% FBS; 4 days; phase contrast microscopy
Protocol: Low attachment 96 well plates were coated with saline, silyl-heparin complex, silyl-heparin-fibrinogen complex or silyl-heparin-bFGF complex. Bovine aorta endothelial cells (5×10^3 cells) were seeded into each well in DMEM containing 10% FBS. The cells were allowed to grow for 4 days and the cultures examined by phase contrast microscopy.

[3] = molecular target: T1, bFGF (Homo sapiens, UniProt P09038); test: Effect of adhesive molecules complexed to silyl-heparin on subsequent bFGF binding; conditions: adhesive molecule complexed to silyl-heparin at 100 μg/mL before bFGF
T1 construct: purchased Sigma Chemical Co
T1 sequence (P09038 143-288, species assumed): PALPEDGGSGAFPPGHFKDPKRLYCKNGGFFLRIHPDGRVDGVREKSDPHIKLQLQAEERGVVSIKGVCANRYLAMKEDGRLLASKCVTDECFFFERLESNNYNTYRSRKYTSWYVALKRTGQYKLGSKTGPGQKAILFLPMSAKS
Protocol: Wells of 96 well polystyrene microtiter plates, with a well surface area of 0.32 cm^2, were coated with 30 μl of silyl heparin for 15 minutes at 37° C. After rinsing and air-drying, bFGF (Sigma Chemical Co.) in PBS/BSA was added in 150 μL aliquots in doubling dilutions. The plate was incubated at 37° C. for 1 hour and rinsed 5 times in PBS. An aliquot 150 μl of PBS/BSA containing 1:500 rabbit anti-FGF antibodies were added, incubated for 1 hour and rinsed. In some cases an irrelevant rabbit antibody was used at a similar concentration (rabbit anti-TGF-receptor II, Santa Cruz Biotechnology). An aliquot of PBS/BSA containing 1:500 HRPO-conjugated donkey anti-rabbit IgG added, and after incubation and rinsing ABTS-chromogen added. All antibody solutions were filtered through 0.2 micron filters prior to use. The absorbance was monitored at 405 nm. […] When anti-TGF-II (irrelevant antibody directed against the transforming growth factor receptor) was used instead of anti-FGF and at the same anti-dilutions, no bFGF was detected. When TGF-β, at a concentration of 40 ng was used as the growth factor molecule, no activity was detected with anti-bFGF antibodies.
Murine type IV collagen, human fibrinogen and bovine fibronectin isolated from plasma were bound to silyl-heparin complexes bound to wells of polystyrene microtiter plates, at a concentration of 100 μg/mL in PBS/BSA. […]

[4] = tested on: C3H10T1/2 (murine fibroblasts); test: Cell attachment, spreading and growth on coated low-attachment polystyrene wells; type: cell-based
Source text: (§1) Several cell types were used, including GS-9L cells (rat gliosarcoma), C3H10T1/2 (murine fibroblasts), Jurkat (human T cell), bovine aorta endothelial (BAE) cells and rat lymphocytes. GS-9L and C3H10T1/2 cells were maintained in log phase growth and detached from cultureware using Versene and collected by centrifugation. Jurkat cells grew as single cell suspensions and were collected by centrifugation. Rat lymphocytes were collected from heparinized blood by density gradient isolation over Ficoll-Hypaque® media. The collected cells were rinsed once by low speed centrifugation and suspended in either serum-free Dulbecco's Modified Eagles Medium (DMEM) containing pyruvate or RPMI 1640 containing 10% fetal bovine serum (FBS) supplemented with pyruvate. Aliquots of 10^4 cells in 100 μL were used in subsequent adhesion studies.
(§2) The cells were examined after plating using an inverted, phase-contrast microscope. At selected time points up to 4 days after initial seeding, the cells were rinsed three times in saline and fixed in buffered 10% formalin or 35% ethanol. In some cases, the cells were stained in situ with a 0.01 % aqueous solution of crystal violet. The amount of attachment was scored visually or quantitated. To establish the relative number of cells bound, crystal violet stained cells were dissolved in a solution of 70% ethanol containing 0.1% sodium dodecyl sulfate and 0.38 M Tris and the absorbance monitored at 610 nm, using the methods of Scragg and Ferreira (Anal Biochem 198:80-5, 1991) and Grando et al. (Skin Pharmacol 6:135-47, 1993).
(§3) The cells of Example 7 were added to untreated polystyrene wells, wells coated with silyl-heparin as in Example 4, with silyl-heparin-fibronectin as in Example 5, and with only fibronectin by incubation as described in Example 5. […] Cells were seeded at a concentration of 10^4 cells/well in serum-containing medium.
The cells grew to confluency by 4 days. […] No effort was made to grow the cells in a defined- or serum-low medium known to support growth. […]

[5] = tested on: C3H10T1/2 cells; test: C3H10T1/2 cell attachment to a variety of coated substrates; type: cell-based, murine
Protocol: as §2
The general applicability of silyl-heparin-fibronectin complex was evaluated by applying this coating using the methods of Examples 4 and 5 to a variety of surfaces, including polystyrene, polylactide:polyglycolide, polycaprolactone, polyurethane and stainless steel. […] They did, however, bind moderately well to polylactide:polyglycolide and to polycaprolactone, and very well to stainless steel.

[6] = tested on: GS-9L cells (rat gliosarcoma); test: Cell attachment, spreading and growth on coated low-attachment polystyrene wells; type: cell-based; conditions: 10^4 cells/well, serum-containing medium
Source text: as §1, §2, §3
The cells grew to confluency by 4 days. […] No effort was made to grow the cells in a defined- or serum-low medium known to support growth.

[7] = tested on: C3H10T1/2 cells; test: Cross-titration of fibronectin and silyl-heparin needed to support cell attachment; type: cell-based, murine; conditions: fibronectin titrated from 4 μg/well on silyl-heparin applied at 30 μg/well; 24 hours; crystal violet, 610 nm
Protocol: The optimal amount of fibronectin and silyl-heparin to support attachment of C3H10T1/2 cells was determined by cross-titration, as shown on FIG. 1. […] The fall-off for the silyl-heparin was more gradual. The curve of the relative amount of silyl-heparin on the substrate following serial dilution generally followed the cell attachment curve.
In FIG. 1, fibronectin (Δ—Δ) or silyl-heparin (•—•) were titrated to determine the quantity needed to support attachment of C3H10T1/2 cells. All dilutions were performed in quadruplicate in wells of 96-well plates of low-attachment polystyrene. For titration of fibronectin, silyl-heparin was applied at 30 μg/well in 70% ethanol as in Example 4. After rinsing, fibronectin was applied in doubling dilutions of phosphate buffered saline starting from 4 μg/well. For titration of silyl-heparin, silyl-heparin was applied in doubling dilutions in 70% ethanol starting from silyl-heparin concentrations of 30 μg/well. Fibronectin was then applied in saline at 4 μg/well. Cells were at a concentration of 10^4 cells/well in growth medium. For both experiments, the cells were allowed 24 hours to attach and then were rinsed and fixed in buffered formalin. The cells were stained for 5 minutes with 0.01% aqueous crystal violet and the absorbance at 610 nm determined.

[8] = affinity binding of fibronectin to heparin; cited from earlier work

In the case of “transferrin: protein used at 100 μg/ml on silyl-heparin coated wells”, the “attachment of C3H10T1/2 cells by crystal violet staining, Average ± S.E.” value (shortened to “attachment of C3H10T1/2 cells … Average ± S.E.”) [1] is reported as 0.15 ± 0.03.

For “bFGF: basic fibroblast growth factor (Sigma Chemical Co.)”, the capillary tube formation [2] was “Tubes did not form”.

In the case of fibrinogen, the “attachment of C3H10T1/2 cells … Average ± S.E.” value [1] is reported as 1.63 ± 0.17**, the “effect on binding of bFGF to the silyl-heparin-adhesive molecule complex” value [3] is reported as “less significant decrease in binding” and the capillary tube formation [2] is reported as “Tubes did not form”.

With heparin [reference compound] the “effect of heparin added to the medium on attachment or growth of cells” value ([4]; up to 10 U of heparin, C3H10T1/2 plated onto silyl-heparin-fibronectin coated plates) was “did not inhibit the attachment or growth” and the “effect of coating or treatment on C3H10T1/2 cell attachment” value ([5]; regardless of the substrate) was “did not inhibit attachment”.

In the case of gelatin, the “attachment of C3H10T1/2 cells … Average ± S.E.” value [1] is reported as 0.15 ± 0.05.

In the case of poly-l-lysine [reference compound], the “attachment of C3H10T1/2 cells … Average ± S.E.” value [1] is reported as 1.18 ± 0.06***.

In the case of “fibronectin: bovine plasma fibronectin, adhesive molecule”, the “CELL ATTACHMENT” value [6] is reported as “isolated C3H10T1/2 cells and isolated GS-9L cells were found attached”, the “CELL ATTACHMENT” value ([4]; C3H10T1/2, coated low-attachment polystyrene wells, 10^4 cells/well, serum-containing medium) is reported as “isolated C3H10T1/2 cells and isolated GS-9L cells were found attached” and the “C3H10T1/2 CELL ATTACHMENT” value ([5]; surface: Polyactide:polyglycolide) is reported as “improve the attachment of cells”. The “C3H10T1/2 CELL ATTACHMENT” value ([5]; surface: Polystyrene) was “did not significantly support cell attachment”, the “C3H10T1/2 CELL ATTACHMENT” value ([5]; surface: Polyurethane) was “improve the attachment of cells” and the “EC50 to support attachment of C3H10T1/2 cells” value [7] was “approximately 0.5 μg/well”. The “attachment of C3H10T1/2 cells … Average ± S.E.” value [1] was 1.00 ± 0.10**, the “effect on binding of bFGF to the silyl-heparin-adhesive molecule complex” value [3] was “significantly decreased the binding of bFGF” and the affinity constant [8] was “approximately 10^8 M/L”.

In the case of poly-l-ornithine [reference compound], the “attachment of C3H10T1/2 cells … Average ± S.E.” value [1] is reported as 0.92 ± 0.28*.
